# How the values were obtained:
# Details in all cases: 72 h
# [1] = test system: U2OS; assay: relative viability EC50 (midpoint between 100% and the lowest measured viability); higher = less toxic
# [2] = test system: Calu-3; assay: as above
# [3] = test system: HepG2; assay: as above
# [4] = test system: Caco-2; assay: as above
# [5] = test system: Vero E6; assay: as above
# [6] = test system: U2OS; assay: cell viability relative to DMSO; higher = less toxic
# [7] = test system: Calu-3; assay: as above
# [8] = test system: HepG2; assay: as above
# [9] = test system: Caco-2; assay: as above
# [10] = test system: Vero E6; assay: as above
# [11] = test system: U2OS; assay: drug sensitivity score (DSS) for viability; higher = more toxic; extreme values may be limits of the assay
# [12] = test system: Calu-3; assay: as above
# [13] = test system: HepG2; assay: as above
# [14] = test system: Caco-2; assay: as above
# [15] = test system: Vero E6; assay: as above
SMILES,relative viability EC50 [1] [µM],relative viability EC50 [2] [µM],relative viability EC50 [3] [µM],relative viability EC50 [4] [µM],relative viability EC50 [5] [µM],cell viability ([6]; 1 nM) [%],cell viability ([6]; 10 nM) [%],cell viability ([6]; 100 nM) [%],cell viability ([6]; 1000 nM) [%],cell viability ([6]; 10000 nM) [%],cell viability ([7]; 1 nM) [%],cell viability ([7]; 10 nM) [%],cell viability ([7]; 100 nM) [%],cell viability ([7]; 1000 nM) [%],cell viability ([7]; 10000 nM) [%],cell viability ([8]; 1 nM) [%],cell viability ([8]; 10 nM) [%],cell viability ([8]; 100 nM) [%],cell viability ([8]; 1000 nM) [%],cell viability ([8]; 10000 nM) [%],cell viability ([9]; 1 nM) [%],cell viability ([9]; 10 nM) [%],cell viability ([9]; 100 nM) [%],cell viability ([9]; 1000 nM) [%],cell viability ([9]; 10000 nM) [%],cell viability ([10]; 1 nM) [%],cell viability ([10]; 10 nM) [%],cell viability ([10]; 100 nM) [%],cell viability ([10]; 1000 nM) [%],cell viability ([10]; 10000 nM) [%],drug sensitivity score [11],drug sensitivity score [12],drug sensitivity score [13],drug sensitivity score [14],drug sensitivity score [15]
CCc1cccc(N(C)C(=N)Nc2cccc3ccccc23)c1 [aptiganel],> 10,> 10,> 10,> 10,> 10,101,107,98.5,97.5,88.2,106,105,93.2,92.5,75.1,97.6,97.2,96.1,96,85.8,98.1,95.6,96.4,94.5,82,98.2,100,103,96.7,88.8,0.1,1.4,0.1,0.7,0.1
CCCCN(CCCC)C(=O)CN1C[C@H](c2ccc3c(c2)OCO3)[C@@H](C(=O)O)[C@@H]1c1ccc(OC)cc1 [atrasentan],> 10,> 10,> 10,> 10,> 10,94.4,94.4,102,94.5,106,98.7,94.6,114,104,109,106,104,92.6,104,97.6,101,99.8,98.3,88.3,99.3,104,105,98.8,98.8,104,0,0,0,0,0
CC[C@H]1OC(=O)[C@H](C)[C@@H](O[C@H]2C[C@@](C)(OC)[C@@H](O)[C@H](C)O2)[C@H](C)[C@@H](O[C@@H]2O[C@H](C)C[C@H](N(C)C)[C@H]2O)[C@](C)(O)C[C@@H](C)CN(C)[C@H](C)[C@@H](O)[C@]1(C)O [azithromycin],> 10,> 10,> 10,> 10,> 10,95.5,98.7,104,96.6,98.2,96.2,94.5,104,89.8,106,111,105,83.5,105,92,89.6,104,96.7,101,92.2,107,103,100,99.7,101,0,0,0,0,0
CC(Cc1cccc(C(F)(F)F)c1)NCCOC(=O)c1ccccc1 (stereo not given) [benfluorex],> 10,> 10,> 10,> 10,> 10,98.8,102,105,96.8,100,97.8,94.5,100,96.4,104,86,96.6,97.8,99.4,88.4,103,95.9,103,107,97.6,101,107,94.2,100,96.3,0,0,0,0,0
C=C(c1ccc(C(=O)O)cc1)c1cc2c(cc1C)C(C)(C)CCC2(C)C [bexarotene],> 10,> 10,> 10,> 10,> 10,94,97.9,102,95,92.7,92.5,95.8,102,96.7,103,94.9,96.8,107,99.7,112,106,90.1,95.2,86.4,86.3,100,102,96.6,94.3,98,0,0,0,0.9,0
Oc1c(Cl)cc(Cl)cc1Sc1cc(Cl)cc(Cl)c1O [bithionol],> 10,> 10,> 10,> 10,> 10,103,93.8,104,98.6,104,92.6,95.7,102,97.3,111,101,89.3,93,83.1,86.3,104,88.5,99,86,89.2,97.3,107,89.9,94.8,96.4,0,0,1.7,0.4,0
Cc1cc2c(OCC(CNC(C)(C)C)OC(=O)c3ccccc3)cccc2[nH]1 (stereo not given) [bopindolol],> 10,> 10,> 10,> 10,> 10,92.7,101,93,110,90.4,101,102,108,103,92,94,100,101,96.8,95.8,93.7,102,95.4,102,91.7,101,91.6,95.9,98.5,98.1,0,0,0,0,0
CC(=O)OCC1=C(C(=O)O)N2C(=O)[C@@H](NC(=O)CS/C(=N/C(C)C)NC(C)C)[C@H]2SC1 [cefathiamidine],> 10,> 10,> 10,> 10,> 10,94.3,94.3,97.9,98.8,102,97.3,107,107,108,102,94.6,89.3,96.8,98.1,105,97.9,96.5,113,107,96.6,99.7,101,95.1,102,109,0,0,0,0,0
Oc1c(Cl)cc(Cl)c2cccnc12 [chloroxine],> 10,> 10,> 10,> 10,> 10,102,103,96.7,101,94.4,93.9,103,91.9,100,84.2,75.3,89.9,92.2,91.6,76,98.9,102,96.6,91.4,85.3,100,105,96.9,93.5,96.7,0,0.3,0,0.5,0
COc1ccc(/C=C\c2cc(OC)c(OC)c(OC)c2)cc1O [combretastatin-A-4],0.006,0.303,0.0466,0.0175,0.0107,94.5,47.4,22.3,23.6,22.2,100,107,85.8,47.2,34.5,99.6,99.8,45.2,37.9,37.3,93.5,76.9,52.8,40.3,43.9,97.1,63.9,22.5,22.8,25.1,30.8,11.5,18.3,19.1,28.4
Cc1cccc(Cc2c[nH]cn2)c1C [detomidine],> 10,> 10,> 10,> 10,> 10,101,98.2,103,96.5,101,99.7,93,102,103,102,99.4,101,104,113,113,94.2,94,97.5,86.7,96.1,91,101,90.5,102,106,0,0,0,0,0
N#CC(c1ccc(Cl)cc1)c1c(Cl)cc(-n2ncc(=O)[nH]c2=O)cc1Cl (stereo not given) [diclazuril],> 10,> 10,> 10,> 10,> 10,98.6,98.5,95.7,94.8,100,98,84.7,94.2,92.9,107,101,102,121,110,91,100,93.7,107,86.3,110,99.4,100,92.2,95.8,109,0,0,0,0,0
C1CCC(NC2CCCCC2)CC1 [dicyclohexylamine],> 10,> 10,> 10,> 10,> 10,99.2,99.5,99.4,104,97.7,96.6,99,87.8,97.8,98,99,104,97.5,111,104,98.7,104,94.6,106,94.1,99.1,96.3,97.3,100,97.5,0,0,0,0,0
COc1ccc(-c2cc(=O)c3c(O)cc(O)cc3o2)cc1O [diosmetin],> 10,> 10,> 10,> 10,> 10,94.2,93.1,101,96.2,90.2,93.2,104,91.5,93.7,78.3,97.7,109,94.6,120,86.7,95.9,91.6,101,96.6,86.3,95.2,96.8,91,101,113,0,1,0,0.4,0

# From the supplement of paper PMC13380429
